Laboratory results published in US11851695B2, “Preparing novel steviol glycosides by bioconversion” (The Coca-Cola Company, priority 2016, dated 2023).

Experiment: Sensory evaluation by a trained panel, single sip protocol
Type: in vivo
Conditions: mean panel score, 400 ppm in water at 4° C.; for Bitter Aftertaste Intensity / Sweet Linger Intensity: 1 minute after tasting; for Overall Max Bitterness / Overall Max Sweetness: from sip up to 1 minute; for Bitter Intensity In Mouth: maximum bitterness in mouth during 5 seconds; for Sweet Intensity In Mouth: maximum sweetness in mouth during 5 seconds
Method: The sensory profiles of CC-00326, CC-00342 and CC-00345 were compared to rebaudioside M.
A trained panel evaluated the various samples. Samples were evaluated using a single sip protocol as follows: • Samples were served at approximately 4° C. • Panelists were instructed to take 1 sip of the sample, hold in mouth for 5 seconds, expectorate, and rate the given attributes • A 5 minute break was placed between each sample and panelists were instructed to cleanse their palates with at least 1 bite of unsalted cracker and 2 sips of filtered water • Due to limited sample quantity panelists were given 7 mL aliquots of each sample • Samples were randomized within each session for each panelist • All samples were presented in replicate in each session
Samples were evaluated for the following: • Sweet taste intensity: maximum level of sweetness in mouth during 5 seconds • Bitter taste intensity: maximum level of bitterness in mouth during 5 seconds • Overall maximum sweet intensity: maximum sweet intensity experienced from the time the sip is taken up to 1 minute • Overall maximum bitter intensity: […] experienced from the time the sip is taken up to 1 minute • Sweet linger intensity: sweet intensity 1 minute after tasting the sample • Bitter aftertaste intensity: bitter intensity 1 minute after tasting the sample
Data was analyzed with an ANOVA, with Sample as fixed effects and Panelist and interaction as random effects was used to determine significance between the samples for each attribute at the 95% Confidence Level, two-tailed. Fishers LSD was used to determine significant differences between mean scores.
The sensory profile of (i) 400 ppm CC-00326 was compared to (ii) 400 ppm Reb M 80% (rebaudioside M content 80% by weight on a dry basis). Both samples (i) and (ii) were formulated in a water matrix at 4° C.
The sensory profile of (i) 400 ppm CC-00342 was compared to (ii) 400 ppm Reb M 95% (rebaudioside M content 95% by weight on a dry basis). Both samples (i) and (ii) were formulated in a water matrix at 4° C.
The sensory profile of (i) 400 ppm CC-00345 was compared to (ii) 400 ppm Reb M 95% (rebaudioside M content 95% by weight on a dry basis). Both samples (i) and (ii) were formulated in a water matrix at 4° C.

[1] = Table 2 (CC-00342 vs Reb M 95%)
[2] = Table 1 (CC-00326 vs Reb M 80%)
[3] = Table 3 (CC-00345 vs Reb M 95%)
[4] = Table 3 (CC-00345 vs Reb M 95%), p = 0.08 at the 90% CL

Row | Compound | Bitter Aftertaste Intensity [1] | Sweet Linger Intensity [1] [A] | Overall Max Bitterness [1] | Overall Max Sweetness [1] [A] | Bitter Intensity In Mouth [1] | Sweet Intensity In Mouth [1] [A] | Bitter Aftertaste Intensity [2] [A] | Sweet Linger Intensity [2] [A] | Overall Max Bitterness [2] | Overall Max Sweetness [2] [A] | Bitter Intensity In Mouth [2] | Sweet Intensity In Mouth [2] | Bitter Aftertaste Intensity [3] [A] | Sweet Linger Intensity [3] [A] | Overall Max Sweetness [3] [A] | Overall Max Bitterness [4] [A] | Bitter Intensity In Mouth [3] [A] | Sweet Intensity In Mouth [3] [A]
1 | C=C1C[C@@]23CCC4[C@](C)(C(=O)OC5OC(COC6OC(CO)C(O)C(O)C6O)C(O)C(O)C5OC5OC(CO)C(O)C(O)C5O)CCC[C@@]4(C)[C@@H]2CCC1(OC1OC(CO)C(O)C(OC2OC(CO)C(O)C(O)C2O)C1OC1OC(CO)C(O)C(O)C1O)C3 (stereo partly drawn) [CC-00342] | 1.0 | 3.8 | 2.0 | 8.1 | 1.2 | 6.7 | – | – | – | – | – | – | – | – | – | – | – | –
2 | C=C1C[C@@]23CC[C@H]4[C@@](C)(CCC[C@@]4(C)C(=O)O[C@@H]4O[C@H](CO)[C@@H](O)[C@H](O[C@@H]5O[C@H](CO)[C@@H](O)[C@H](O)[C@H]5O)[C@H]4O[C@@H]4O[C@H](CO)[C@@H](O)[C@H](O)[C@H]4O)[C@@H]2CC[C@]1(O[C@@H]1O[C@H](CO)[C@@H](O)[C@H](O[C@@H]2O[C@H](CO)[C@@H](O)[C@H](O)[C@H]2O)[C@H]1O[C@@H]1O[C@H](CO)[C@@H](O)[C@H](O)[C@H]1O)C3 [Reb M 80%, rebaudioside M] | – | – | – | – | – | – | 1.1 | 4.3 | 2.3 A | 9.0 | 1.6 A | 8.3 A | – | – | – | – | – | –
3 | C=C1C[C@@]23CCC4[C@](C)(C(=O)OC5OC(COC6OC(CO)C(O)C(O)C6O)C(O)C(OC6OC(CO)C(O)C(O)C6O)C5OC5OC(CO)C(O)C(O)C5O)CCC[C@@]4(C)[C@@H]2CCC1(OC1OC(CO)C(O)C(OC2OC(CO)C(O)C(O)C2O)C1OC1OC(CO)C(O)C(O)C1O)C3 (stereo partly drawn) [CC-00345] | – | – | – | – | – | – | – | – | – | – | – | – | 1.8 | 3.9 | 7.2 | 2.2 | 1.3 | 6.6
4 | C=C1C[C@@]23CC[C@H]4[C@@](C)(CCC[C@@]4(C)C(=O)O[C@@H]4O[C@H](CO)[C@@H](O)[C@H](O[C@@H]5O[C@H](CO)[C@@H](O)[C@H](O)[C@H]5O)[C@H]4O[C@@H]4O[C@H](CO)[C@@H](O)[C@H](O)[C@H]4O)[C@@H]2CC[C@]1(O[C@@H]1O[C@H](CO)[C@@H](O)[C@H](O[C@@H]2O[C@H](CO)[C@@H](O)[C@H](O)[C@H]2O)[C@H]1O[C@@H]1O[C@H](CO)[C@@H](O)[C@H](O)[C@H]1O)C3 [Reb M 95%, rebaudioside M] | 1.0 | 4.5 | 2.0 | 8.5 | 1.1 | 7.0 | – | – | – | – | – | – | 1.3 | 3.6 | 7.4 | 1.5 | 1.3 | 7.1
5 | C=C1C[C@@]23CCC4[C@](C)(C(=O)OC5OC(COC6OC(CO)C(O)C(O)C6O)C(O)C(O)C5O)CCC[C@@]4(C)[C@@H]2CCC1(OC1OC(CO)C(O)C(OC2OC(CO)C(O)C(O)C2O)C1OC1OC(CO)C(O)C(O)C1O)C3 (stereo partly drawn) [CC-00326, 13-[(2-O-β-D-glucopyranosyl-3-O-β-D-glucopyranosyl-β-D-glucopyranosyl)oxy] ent-kaur-16-en-19-oic acid-[(6-O-α-D-glucopyranosyl-β-D-glucopyranosyl) ester]] | – | – | – | – | – | – | 0.9 | 3.9 | 1.6 B | 7.9 | 0.8 B | 6.9 B | – | – | – | – | – | –
